Each structure is given as a SMILES string. Where “and” joins values, the source holds several entries; their conditions need not be identical. Equal entries are not always repeated. Entries after “also recorded” stand apart in the source; their conditions may differ.

The values below come from patent US20030064989A1, “Inhibitors of cell proliferation, angiogenesis, fertility, and muscle contraction” (priority 2001, published 2003).

The test system of data set [1] is chick chorioallantoic membrane (CAM). Put plainly: Chick chorioallantoic membrane (CAM) assay, CAM area. The note with it: for LOAEL / LOAEL (Molar) / NOAEL (Molar) / LOAEL (mg/ml): day 5-6 CAMs, 24 hours; for minimal effective concentration: Gallus gallus, 24 h, read-out: lowest effective dose on CAM area; for effect on CAM area: 5e-11M. The protocol: The chick chorioallantoic membrane (CAM) assay is perhaps the most widely used assay for screening anti-angiogenic or growth inhibitory compounds (see, e.g. Ribatti et al., Int. J. Dev. Biol. 40:1189-1197 (1996)). Cell proliferation and angiogenesis were evaluated by measuring CAM area and BrdU labeling using the CAM assay as modified by Melkonian et al., J. Exp. Zool. (2001), in review. Fertilized chicken eggs were purchased from Hy-Line International (Lakeview, CA), then incubated at 37° C. at 85-90% relative humidity throughout the experiment. Experiments were done to evaluate cell proliferation, angiogenesis, and vascularization in CAMs between days 5 and 6 after fertilization. Albumin (2.5-3.0 cc) was removed on the fourth day after fertilization to drop the embryo away from the shell. Windows were then made in shells, and sealed with transparent tape to allow subsequent access to the CAM for experimental treatment. 200 μl of either EBSS-H or different concentrations of pure chemicals were added to the surface of each CAM at 10 AM on the fifth day after fertilization. A sham control group in which the window was opened and resealed was also included in each experiment. In all cases, the following five concentrations of test reagents were used, 5×10^−3 M, 5×10^−5 M, 5×10^−7M, 5×10^−9 M and 5×10^−11M. For 2-ethylpyridine and 3-ethylpyridine additional concentrations of 5×10^−12M, 5×10^−13M, 5×10^−14 M and 5×10^−15 M were used. For nicotine and nornicotine, concentrations of 5×10^−4 M, 5×10^−6 M, 5×10^−8 M and 5×10^−10 M were also used. Development was terminated at 10 AM on the sixth day after fertilization by fixing the embryo and the CAM with 3% glutaraldehyde in 0.1M cacodylate buffer (pH 7.4) for 2 hours at room temperature. A small volume of fixative was also injected under the CAM. The CAMs were later dissected from eggs, post-fixed in the same fixative for 24 hours at room temperature, then thoroughly rinsed in PBS.
At least 6 CAMs were used in each control and experimental group. Parameters which measure aspects of cell proliferation, angiogenesis, and vacularization were quantified for each CAM. These parameters include: (1) for cell proliferation—CAM area, BrdU labeling of nuclei; (2) for angiogenesis—blood vessel pattern, blood vessel area, blood vessel diameter, and blood vessel branching; (3) for vascularization—density of angiogenic clusters. The area of each CAM was measured by placing the CAMs in PBS in a Petri dish under a Wild-M5A dissecting microscope (Max ERB instrument Co., Burbank, CA), then measuring the longest and shortest length of each CAM with a ruler to the precision of 0.5 mm. The data were recorded into Excel spreadsheet. CAM area was calculated using the formula:
where A=longest length, B=longest width, π=3.14.
Means and standard deviations were then calculated for each control and treatment group. The treated group means were used to compare with control means to determine the effect of each chemical on CAM growth.
On the fifth day after fertilization, either EBSS-H or different concentrations of test chemicals were added to each CAM. A sham group in which windows were opened and resealed without adding any solution was also included to determine if the vehicle EBSS-H had any effect on CAM area. Development was terminated 24 hours later, and CAMs were measured as described in Materials and Methods.

Data set [2] relates to nuclei of day 5 CAMs. Description: BrdU labeling of CAMs (cell proliferation). Format: in vivo, chick. The procedure:
Eight hours after the initial EBSS-H or chemical treatment on day 5 after fertilization, […] BrdU (Sigma, St. Louis, Mo.) were added to each CAM surface. Another 55 minutes after the BrdU treatment, the development of the CAMs was terminated by transferring the embryos and CAMs into a −20° C. freezer for 2-3 minutes. Embryos and CAMs were then fixed at −20° C. in 70% ethanol containing 50 mM glycine buffer, pH 2.0 for 1.5 hours. CAMs were then dissected out of the eggs, washed in PBS and dehydrated in 30%, 50%, 75%, 90% and 100% ethanol series. Dehydrated CAM tissues were further processed in Hypercenter II Tissue Processing System (Shandon Inc., Pittsburgh, Pa.), then embedded in paraffin using Sakura Tissue-TE (Shandon Inc., Pittsburgh, Pa.). Paraffin Sections were cut using a S20 Spencer microtome (Labequip, American Optical Corp., Ontario, Canada), and were mounted on Superfrost/plus glass slides (Fisher Scientific, Tustin, CA). Sections were deparaffinized with 3 changes of Hemo-De for 15 minutes each, 2 changes of 100% ethanol for 5 minutes each, then rehydrated in PBS. […] Images were recorded using a Spot digital camera-SP401-115 (Diagnostic Instruments, Sterling Heights, MI) and processed and montaged using Adobe Photoshop (San Jose, Calif.). […]
In general terms: Uptake of a labelled nucleoside into DNA is a usual measure of proliferation.

In data set [3] the test system is blood vessels of the chick chorioallantoic membrane (CAM). Put plainly: CAM angiogenesis: blood vessel area, pattern formation, capillary plexus. Format: in vivo. The procedure:
(2001), in review. […] The surface of each CAM was further dissected out of the CAM pocket in PBS. CAMs were then flattened with 18×18-1.5 Fisherbrand microscope cover slip (Fisher Scientific, Pittsburgh, Pa.) in Fisherbrand 60×15 mm standard sterile polystyrene petri dish (Fisher Scientific, Pittsburgh, Pa.). […] Pattern formation was evaluated blindly using video image montages projected on a computer monitor. Images were ranked on a scale of 0 to 3, with 0 being similar to control CAMs and 3 being most dissimilar from controls. The area occupied by major blood vessels in control and chemically treated CAMs was measured in digitalized images projected on a computer monitor using NIH image. Boxes (2.4 c 1.98 mm) were placed in each corner of each CAM image, which had been processed to visualize the major blood vessels. The percentage of pixels occupied by the blood vessels was quantified in each box and an average percentage was computed from the four boxes measured from each CAM. These values were used to compute means and standard deviations for each group. Blood vessel diameter and branching were measured in images projected on a computer monitor using NIH Image software. Density of angiogenic clusters was evaluated in toluidine blue stained histological sections that were digitalized and projected on a computer monitor.

A word on the LOAEL: it is the lowest tested level that showed an adverse finding. `Cc1cc(C)nc(C)c1` [2,4,6-trimethylpyridine]: in data set [1] (CAM area), the “LOAEL” value was 0.0061 mg/mL, the “LOAEL (Molar)” value is 50 µM and the “NOAEL (Molar)” value is 500 nM. Further, the minimal effective concentration in data set [1] was 50 µM and 6.1 µg/mL.

`Cc1cccnc1` [3-methylpyridine]: in data set [1] (CAM area), the “LOAEL (Molar)” value worked out at 0.005 µM, the “LOAEL (mg/ml)” value was determined as 4.66e−7 mg/lml mg/ml and the “NOAEL (Molar)” value was found to be 0.05 nM. In data set [1], the minimal effective concentration is 0.005 µM and 0.000466 µg/mL.

With `CCc1ccccn1` [2-ethylpyridine], in data set [1] (5e-3M), the “CAM size compared with control groups” value is reported as “significantly smaller”. For the same molecule, in data set [1] (CAM area), the “lowest effective dose lower than that of the single pyridine ring” value turned out to be 10 million, the lowest-observed-adverse-effect level (LOAEL) is 5.36e-10 mg/mL, the “LOAEL (Molar)” value is 5e-06 µM and the “NOAEL (Molar)” value was found to be 0.0005 nM. The minimal effective concentration in data set [1] was 5e-06 µM and 5.4e-07 µg/mL. Moreover, the “CAM growth / size compared with control” value in data set [1] (dose not stated) is on record as “significantly inhibited”. In data set [2] (5e-11, eight hours), the “incorporation of BrdU into nuclei” value is reported as “significantly less incorporation of BrdU”. Besides, in data set [3] (5e-3M), the “major blood vessel pattern formation” value was “disturbance in major blood vessel pattern formation”. Moreover, the dendritic branching pattern entry in data set [3] (all doses tested) is “disrupted”. Besides, the “formation of the capillary plexus” value in data set [3] (in vivo) is given as “significantly inhibited; also recorded: failed to form”. Besides, the “dose at which blood vessel area was significantly decreased” value in data set [3] (vs EBSS control, exposed day 5, evaluated day 6) is 50 pM.

For `c1ccncc1` [Pyridine, pyridine, reference compound], in data set [1] (CAM area), the “LOAEL” value was determined as 0.00396 mg/mL, the “LOAEL (Molar)” value was 50 µM and the “NOAEL (Molar)” value stood at 500 nM. Moreover, in data set [1], the minimal effective concentration was 50 µM and 3.96 µg/mL.

For `Cc1ccccn1` [2-methylpyridine], in data set [1] (CAM area), the “LOAEL (Molar)” value was found to be 0.005 µM, the “LOAEL (mg/ml)” value amounted to 4.66e−7 mg/lml mg/ml and the “NOAEL (Molar)” value was determined as 0.05 nM. In addition, in data set [1], the minimal effective concentration is 0.005 µM and 0.000466 µg/mL. Also, the “incorporation of BrdU into nuclei” value in data set [2] (5e-9, eight hours) is recorded as “significantly less incorporation of BrdU”.

Take `c1cc(-c2ccncc2)ccn1` [4,4-bipyridine]: in data set [1] (CAM area), the “LOAEL” value amounted to 0.0781 mg/mL, the “LOAEL (Molar)” value was 500 µM and the “NOAEL (Molar)” value came to 50000 nM. Further, the minimal effective concentration in data set [1] is 500 µM and 78.1 µg/mL.

Turning to `CN1CCCC1c1cccnc1` (stereo not drawn) [nicotine, 1-methyl-2-(3-pyridyl)pyrrolidine], in data set [1], the “effect on CAM area” value was “significant stimulatory effect”; the minimal effective concentration was 500 µM and 81 µg/mL. Further, in data set [1] (CAM area), the “LOAEL” value stood at 0.081 mg/mL, the “LOAEL (Molar)” value stood at 500 µM and the “NOAEL (Molar)” value was 50000 nM.

With `Cc1ccnc(C)c1` [2,4-dimethylpyridine], in data set [1] (CAM area), the “LOAEL” value is 0.00536 mg/mL, the “LOAEL (Molar)” value worked out at 50 µM and the “NOAEL (Molar)” value came to 500 nM. In addition, the minimal effective concentration in data set [1] is 50 µM and 5.36 µg/mL.

Consider `C=Cc1ccncc1` [4-ethenylpyridine], for which, in data set [1] (CAM area), the “LOAEL” value amounted to 0.00526 mg/mL, the “LOAEL (Molar)” value was determined as 50 µM and the “NOAEL (Molar)” value is 500 nM. For the same molecule, in data set [1], the minimal effective concentration is 50 µM and 5.26 µg/mL.

For `Cn1cccc1-c1cccnc1` [b-nicotyrine, 3-(1-methylpyrrol-2-yl)pyridine], in data set [1], the “effect on CAM area” value is on record as “slight increase”; the minimal effective concentration is 0.5 µM and 0.079 µg/mL. For the same molecule, in data set [1] (CAM area), the “LOAEL” value is 7.9e-05 mg/mL, the “LOAEL (Molar)” value was 0.5 µM and the “NOAEL (Molar)” value is 5 nM.

With `Cc1cccnc1C` [2,3-dimethylpyridine], in data set [1] (CAM area), the “LOAEL” value worked out at 0.00536 mg/mL, the “LOAEL (Molar)” value was found to be 50 µM and the “NOAEL (Molar)” value came out at 500 nM. In addition, the minimal effective concentration in data set [1] is 50 µM and 5.36 µg/mL.

In the case of `c1cncc([C@@H]2CCCN2)c1` [nornicotine, 3-(1-pyrrolidin-2-yl)pyridine], in data set [1], the “effect on CAM area” value is “significant stimulatory effect”; the minimal effective concentration was 50 µM and 7.4 µg/mL. Further, in data set [1] (CAM area), the “LOAEL” value came out at 0.0074 mg/mL, the “LOAEL (Molar)” value was determined as 50 µM and the “NOAEL (Molar)” value worked out at 5000 nM.
